Assay results as given in patent US20140163082A1, “PYRAZOLYL COMPOUNDS FOR USE IN REVERSING REACTIVE GLIOSIS” (priority 2011, published 2014).

Key:
[1] = tested on: rMC-1 cells; experiment: Western blot, rMC-1; type: cell-based; details: rMC-1, hypoxia 48 hours, YC-1 25-100 μM
Method: Cells were placed in airtight chambers [BioSpherix, Redfield, N.Y.] and the O2 tension was maintained at 1.2% by using Pro-Ox Model 110 O2 regulator [BioSpherix, Redfield, N.Y.]. The chamber was purged with a gas mixture of 5.32% CO2, and 93.48% N2. […] Müller cells [rMC-1] and […] cells were seeded overnight in 6-well plates [10^5 cells/well]. Cells were treated with either YC-1 [25-100 μM] or DMSO [0.2% v/v] for 48 hours under normoxic or hypoxic environments. Reactions were terminated by addition of lysis buffer [Cell Signaling, Beverly, Mass.]. Protein content of the cell lysates was determined according to the Bradford method [Bio-Rad, Hercules, Calif.]. Aliquots [40 μg] of whole-cell lysates were separated on 7.5% SDS-PAGE, and electro-transferred onto polyvinylidene membranes [Amersham Pharmacia Biotech, Little Chalfont]. After blocking with 5% nonfat dry milk in TBS-T, the blots were incubated overnight with anti-iNOS [at 1:100] and anti-β-actin [internal control] antibodies. Then blots were washed 3×10 min washes in PBS/tween and subsequently incubated with peroxidase-conjugated anti-mouse IgG secondary antibody at 1:3000. The signals were obtained by enhanced chemiluminescence [Amersham Biosciences], and visualized by exposure to X-ray film. Upon completion of chemiluminescence, equal lane loading was checked by Ponceau S Solution [Sigma, St. Louis, Mo.]. X-ray films were scanned with a computer-assisted densitometer [model G-710; Bio-Rad] to quantify band optical density [Quantity One software; Bio-Rad].

[2] = tested on: ischemic retinas; experiment: Immunohistochemical analysis, in vivo (OIR retinas); parameters: species or system C57BL/6J mice; details: OIR mice, vs DMSO-treated retinas
Method: Retinal NV was induced in newborn mice as described previously. Briefly, P7 mice were exposed with their nursing mother, for 5 days [between P7 and P12] to hyperoxic conditions, by incubating them in an airtight chamber [PROOX 110 chamber O2 controller; Biospherix Ltd., Redfield, N.Y.] ventilated by a mixture of O2 and air to a final oxygen fraction of 75±2%. These incubation conditions induced vaso-obliteration and subsequent cessation of vascular development in the capillary beds of the central retina. At P12, the mice were allowed to recover in normal room air conditions and maintained for another 5 days [till P17], the day in which peak disease occurs. A condition of relative hypoxia resulted between P12 and P17, and extensive retinal NV developed in 100% of the mice. Age-matched animals with the hyperoxia-exposed groups were maintained identically, except they were exposed to room air […], 79% N2] for the entire duration of the experiment. All animals were examined and sacrificed on the same days.
A group of hyperoxia-exposed animals [n=15] were injected intravitreally [into both eyes] at P12 and P15 with 3 μl of YC-1 [100 μM] [drug-treated group]. Another group of hyperoxiaexposed mice [n=15] were injected intravitreally [into both eyes] at P12 and P15 with 3 μl of DMSO [0.2% [v/v]] [mock-treated group]. Non-treated mice grown under ambient conditions, non-treated hyperoxia-exposed mice, DMSO-treated hyperoxia-exposed mice and YC-1-treated hyperoxia-exposed mice, were all examined at different critical time points for qualitative assessment of the retinal vasculature by fluorescein angiography.
Mouse retinas were dissected and prepared for immunohistochemical analysis, fixed in 4% paraformaldehyde in 0.1 M PBS for 15 min at room temperature and embedded in paraffin, sectioned [5 μm]. Tissue sections were deparaffinized, hydrated, and later exposed to heat induced antigen retrieval using a microwave oven [three 5-minute cycles in citrate buffer, pH 6.0], endogenous peroxidase was abolished with methanol, and hydrogen peroxide and nonspecific background staining was blocked by incubating the tissue sections for 5 minutes in normal swine serum. Subsequently, all slides were washed three times in PBS, and incubated for 1 hour with primary anti-[HIF-1α, VEGF, PDGF-B, GFAP, iNOS, and β-actin] antibodies. The sections were washed with TBST and incubated with EnVision Polymer HRP secondary antibody [DAKO, Carpinteria, Calif.] for 30 minutes. All slides were stained with DAB solution and counterstained with hematoxylin. Slides were cover slipped [Permount; Fisher Scientific, Fairlawn, N.J.] and examined by light microscopy. Negative controls were performed by omitting the primary antibodies. Sections were photographed under a microscope [Zeiss Axiovert 135, Thornwood, N.Y.], and images were acquired a digital camera [AxioCam, N.Y.]. All retinas were examined at X60 objective. The staining intensity in our series ranged from a weak blush to moderate or strong. The amount of cells staining with the antibody was further categorized as focal [<10%], patchy [10%-50%], and diffuse [>50%]. For meaningful semiquantitative analysis, focal and/or weak staining was considered equivocal staining, and patchy or diffuse staining was either subcategorized as either moderate or strong staining. All Immunohistochemical analyses were measured by Metamorph digital image software [Molecular Devices, Sunnyvale, Calif.].

Structure (SMILES): OCc1ccc(-c2nn(Cc3ccccc3)c3ccccc23)o1 [YC-1, 3-(5′-hydroxymethyl-2′-furyl)-1-benzylindazole]
- HIF-1 protein level (Western blot) ([1]; vs DMSO-treated hypoxic cells): inhibited the hypoxia-induced upregulation
- PDGF-B protein level (Western blot) ([1]; vs DMSO-treated hypoxic cells): inhibited the hypoxia-induced upregulation
- VEGF protein level (Western blot) ([1]; vs DMSO-treated hypoxic cells): inhibited the hypoxia-induced upregulation
- iNOS protein level (Western blot) ([1]; vs DMSO-treated hypoxic cells): inhibited the hypoxia-induced upregulation
- GFAP protein level (Western blot) ([1]; vs non-treated hypoxic cells): inhibited the hypoxia-induced GFAP protein levels in a dose-dependent manner
- GFAP immunoexpression in retina [2]: significant down-regulation
- HIF-1 immunoexpression in retina [2]: significant inhibition
- PDGF-B immunoreactivity in retina [2]: significantly inhibited
- VEGF immunoexpression in retina [2]: significant inhibition
- iNOS immunoreactivities in retina [2]: significantly down-regulated
